Experimental data taken from patent US20260132164A1, “PNU ANTHRACYCLINE DERIVATIVES AND METHODS OF USE THEREOF” (Merck Sharp & Dohme LLC, priority 2022, published 2026).

Each compound was assayed on BxPC3 (assay: CellTiter-Glo 2.0 Cytotoxicity Assay). Details: CellTiter-Glo 2.0 luminescence; compound added day 1, read on day 4 or 5; 3000 cells/well.
Assay type: cell-based

Row | SMILES | EC50 [nM]
1 | COc1cccc2c1C(=O)c1c(O)c3c(c(O)c1C2=O)C[C@@](O)(C(=O)NCCN(C)C(=O)C1CCNC1)C[C@@H]3O[C@H]1C[C@H]2[C@H](O[C@@H]3[C@@H](OC)OCCN32)[C@H](C)O1 (single isomer, unassigned) [Compound 50] | 20

Same assay, conditions: Homo sapiens, BXPC-3, CellTiter-Glo 2.0 luminescence; compound added day 1, read on day 4 or 5; 3000 cells/well

Row | SMILES | EC50 [nM]
2 | COc1cccc2c1C(=O)c1c(O)c3c(c(O)c1C2=O)C[C@@](O)(C(=O)NCCN(C)C(=O)C1CCNC1)C[C@@H]3O[C@H]1C[C@H]2[C@H](O[C@@H]3[C@@H](OC)OCCN32)[C@H](C)O1 (single isomer, unassigned) [Compound 49] | 31
3 | COc1cccc2c1C(=O)c1c(O)c3c(c(O)c1C2=O)C[C@@](O)(C(=O)NCc1cccc(N)c1)C[C@@H]3O[C@H]1C[C@H]2[C@H](O[C@@H]3[C@@H](OC)OCCN32)[C@H](C)O1 [Compound 1, (2S,4S)—N-(3-aminobenzyl)-2,5,12-trihydroxy-7-methoxy-4-(((1S,3R,4aS,9S,9aR,10aS)-9-methoxy-1-methyloctahydro-1H-pyrano[4′,3′:4,5]oxazolo[2,3-c][1,4]oxazin-3-yl)oxy)-6,11-dioxo-1,2,3,4,6,11-hexahydrotetracene-2-carboxamide] | 0.08
4 | COc1cccc2c1C(=O)c1c(O)c3c(c(O)c1C2=O)C[C@@](O)(C(=O)N1CC(CN)C1)C[C@@H]3O[C@H]1C[C@H]2[C@H](O[C@@H]3[C@@H](OC)OCCN32)[C@H](C)O1 [Compound 2] | 22
5 | COc1cccc2c1C(=O)c1c(O)c3c(c(O)c1C2=O)C[C@@](O)(C(=O)NCCNC(=O)[C@@H]1CCCN1)C[C@@H]3O[C@H]1C[C@H]2[C@H](O[C@@H]3[C@@H](OC)OCCN32)[C@H](C)O1 [Compound 3] | 13
6 | COc1cccc2c1C(=O)c1c(O)c3c(c(O)c1C2=O)C[C@@](O)(C(=O)NCCNC(=O)CN)C[C@@H]3O[C@H]1C[C@H]2[C@H](O[C@@H]3[C@@H](OC)OCCN32)[C@H](C)O1 [Compound 4] | 13
7 | COc1cccc2c1C(=O)c1c(O)c3c(c(O)c1C2=O)C[C@@](O)(C(=O)NCCNC(=O)NN)C[C@@H]3O[C@H]1C[C@H]2[C@H](O[C@@H]3[C@@H](OC)OCCN32)[C@H](C)O1 [Compound 5] | 2.8
8 | COc1cccc2c1C(=O)c1c(O)c3c(c(O)c1C2=O)C[C@@](O)(C(=O)N1CC(CNC(=O)[C@H](C)N)C1)C[C@@H]3O[C@H]1C[C@H]2[C@H](O[C@@H]3[C@@H](OC)OCCN32)[C@H](C)O1 [Compound 6] | 8.6
9 | COc1cccc2c1C(=O)c1c(O)c3c(c(O)c1C2=O)C[C@@](O)(C(=O)NCCNC(=O)[C@H](C)N)C[C@@H]3O[C@H]1C[C@H]2[C@H](O[C@@H]3[C@@H](OC)OCCN32)[C@H](C)O1 [Compound 7] | 13
10 | COc1cccc2c1C(=O)c1c(O)c3c(c(O)c1C2=O)C[C@@](O)(C(=O)NCCCNCCCNC(=O)CN)C[C@@H]3O[C@H]1C[C@H]2[C@H](O[C@@H]3[C@@H](OC)OCCN32)[C@H](C)O1 [Compound 8] | 48
11 | CNCCNC(=O)[C@]1(O)Cc2c(O)c3c(c(O)c2[C@@H](O[C@H]2C[C@H]4[C@H](O[C@@H]5[C@@H](OC)OCCN54)[C@H](C)O2)C1)C(=O)c1c(OC)cccc1C3=O [Compound 9] | 17
12 | COc1cccc2c1C(=O)c1c(O)c3c(c(O)c1C2=O)C[C@@](O)(C(=O)N1CC(CN2CC(N)C2)C1)C[C@@H]3O[C@H]1C[C@H]2[C@H](O[C@@H]3[C@@H](OC)OCCN32)[C@H](C)O1 [Compound 10] | 124
13 | COc1cccc2c1C(=O)c1c(O)c3c(c(O)c1C2=O)C[C@@](O)(C(=O)N1CC(CN2CC(NC(=O)[C@H](C)N)C2)C1)C[C@@H]3O[C@H]1C[C@H]2[C@H](O[C@@H]3[C@@H](OC)OCCN32)[C@H](C)O1 [Compound 11] | 822
14 | COc1cccc2c1C(=O)c1c(O)c3c(c(O)c1C2=O)C[C@@](O)(C(=O)NC1CCNC1)C[C@@H]3O[C@H]1C[C@H]2[C@H](O[C@@H]3[C@@H](OC)OCCN32)[C@H](C)O1 (stereo partly drawn) [Compound 12] | 7.7
15 | COc1cccc2c1C(=O)c1c(O)c3c(c(O)c1C2=O)C[C@@](O)(C(=O)N(C)CCN)C[C@@H]3O[C@H]1C[C@H]2[C@H](O[C@@H]3[C@@H](OC)OCCN32)[C@H](C)O1 [Compound 13] | 5.4
